Experimental data taken from patent US9708259B2 (Hoffmann-La Roche Inc., priority 2013, dated 2017).
Residue numbers refer to the chain shown, from its start.

What was measured:
[1] = cited from earlier work
APP processing = settings: cited from earlier work
ratM1 = target: T1, ratM1 (Rattus norvegicus, UniProt P08482); experiment: M1 PAM assay (FLIPR intracellular calcium), rat M1; assay type: cell-based; settings: rat M1, FLIPR Ca2+; second value of the cell; read-out: ratM1 EC50
T1 construct: expressed in transfected cells; host or cells: CHO cells (stated generally for the assay, not specifically for rat M1)
T1 sequence (P08482 1-460): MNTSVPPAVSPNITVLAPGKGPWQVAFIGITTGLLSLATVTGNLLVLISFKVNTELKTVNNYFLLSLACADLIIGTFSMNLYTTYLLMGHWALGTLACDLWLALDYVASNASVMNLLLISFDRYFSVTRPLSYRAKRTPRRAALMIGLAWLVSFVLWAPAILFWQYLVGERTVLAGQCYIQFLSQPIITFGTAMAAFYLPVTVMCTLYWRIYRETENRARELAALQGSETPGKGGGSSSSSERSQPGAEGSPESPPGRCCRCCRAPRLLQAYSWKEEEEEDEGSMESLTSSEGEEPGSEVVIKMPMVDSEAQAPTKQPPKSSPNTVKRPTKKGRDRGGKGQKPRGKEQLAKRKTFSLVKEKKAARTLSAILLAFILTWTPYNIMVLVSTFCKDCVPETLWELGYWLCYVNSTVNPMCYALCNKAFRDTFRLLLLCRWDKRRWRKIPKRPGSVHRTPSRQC

human M1 = target: T2, human M1 (Homo sapiens, UniProt P11229); experiment: M1 PAM assay (FLIPR intracellular calcium), human M1; assay type: cell-based; settings: CHO human M1 cells, FLIPR Ca2+, with EC20 of acetylcholine; first value of the cell; read-out: hM1 EC50
T2 construct: expressed in transfected cells; host or cells: CHO cells
T2 sequence (P11229 1-460): T1 sequence (P08482 1-460) with V5A, S254T, S309P, K320R, G337A, V413I
Method in brief: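 CHO cells expressing M1, Fluo-4AM-loaded, in HEPES/probenecid HBSS pH 7.4, 1% DMSO final. Compounds pre-incubated 2 min for agonist activity versus 30 nM acetylcholine control. For PAM activity, acetylcholine EC20 added after the 2 min pre-incubation, then 2 min more before FLIPR intracellular Ca2+ read.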

Row | SMILES | EC50 (ratM1) [µM] | EC50 (human M1) [µM] | further results
1 | CCCCCCOc1nsnc1C1=CCCN(C)C1 [Xanomeline] |  |  | cognitive scores and psychotic-like behaviors in patients with Alzheimer's disease ([1]; clinical studies, patients with Alzheimer's disease (AD)): improved cognitive scores and reduced psychotic-like behaviors; efficacy on symptoms in schizophrenic patients ([1]; clinical studies, schizophrenic patients): robust efficacy on positive, negative and cognitive symptoms; adverse effects (sweating, salivation, gastrointestinal distress, bradycardia) ([1]; clinical, attributed to insufficient M1 subtype selectivity): always associated with adverse effects
2 | Cc1cc(NC(=O)CS(=O)(=O)c2cn(Cc3cc(Br)ccc3F)c3ccccc23)no1 [ML169] |  |  | non-amyloidogenic APP processing (APP processing): promote non-amyloidogenic APP processing
3 | Cn1cc(-c2ccc(Cn3cc(C(=O)N[C@@H]4C[C@@H]5CC[C@H]4O5)c4c(F)cccc43)c(F)c2)cn1 (relative stereo) [Example 104, N-((endo)-7-oxabicyclo[2.2.1]heptan-2-yl)-4-fluoro-1-(2-fluoro-4-(1-methyl-1H-pyrazol-4-yl)benzyl)-1H-indole-3-carboxamide] | 0.196 | 0.165 | 
4 | O=C(N[C@H]1CCCC[C@@H]1O)c1cn(Cc2ccc(-c3ccccc3)nc2)c2cccc(F)c12 [Example 131, 4-fluoro-N-((1S,2S)-2-hydroxycyclohexyl)-1-((6-phenylpyridin-3-yl)methyl)-1H-indole-3-carboxamide] | 0.152 | 0.036 | 
5 | Cn1cc(-c2ccc(Cn3cc(C(=O)N[C@H]4CCOC[C@@H]4O)c4c(F)c(F)c(F)c(F)c43)cc2)cn1 (single isomer, unassigned) [Example 63, 4,5,6,7-Tetrafluoro-N-((3R,4S) or (3S,4R)-3-hydroxytetrahydro-2H-pyran-4-yl)-1-(4-(1-methyl-1H-pyrazol-4-yl)benzyl)-1H-indole-3-carboxamide] | 0.0542 | 0.0196 | 
6 | CNC(=O)c1ccc(Cn2cc(C(=O)NC3CCOCC3)c3c(F)cccc32)cc1 [Example 132, 4-fluoro-1-(4-(methylcarbamoyl)benzyl)-N-(tetrahydro-2H-pyran-4-yl)-1H-indole-3-carboxamide] | 0.022 | 0.003 | 
7 | Cn1cc(-c2ccc(Cn3cc(C(=O)NC4CCOCC4)c4c(F)ccc(F)c43)c(F)c2)cn1 [Example 96, 4,7-difluoro-1-(2-fluoro-4-(1-methyl-1H-pyrazol-4-yl)benzyl)-N-(tetrahydro-2H-pyran-4-yl)-1H-indole-3-carboxamide] | 0.073 | 0.028 | 
8 | Cc1cn(-c2ccc(Cn3cc(C(=O)N[C@H]4CCCC[C@@H]4O)c4c(F)c(F)ccc43)cc2)cn1 [Example 60, 4,5-difluoro-N-((1S,2S)-2-hydroxycyclohexyl)-1-(4-(4-methyl-1H-imidazol-1-yl)benzyl)-1H-indole-3-carboxamide] | 0.183 | 0.101 | 
9 | Cn1cc(-c2ccc(Cn3cc(C(=O)N[C@H]4CCOC[C@@H]4O)c4c(F)cccc43)c(F)c2)cn1 (single isomer, unassigned) [Example 71, 4-Fluoro-1-(2-fluoro-4-(1-methyl-1H-pyrazol-4-yl)benzyl)-N-((3R,4S) or (3S,4R)-3-hydroxytetrahydro-2H-pyran-4-yl)-1H-indole-3-carboxamide] | 0.012 | 0.00592 | 
10 | Cn1cc(-c2ccc(Cn3nc(C(=O)N[C@H]4CCOC[C@@H]4O)c4c(F)ccc(F)c43)cn2)cn1 [Example 74, 4,7-difluoro-N-((3R,4S)-3-hydroxytetrahydro-2H-pyran-4-yl)-1-((6-(1-methyl-1H-pyrazol-4-yl)yridine-3-yl)methyl)-1H-indazole-3-carboxamide] | 0.0489 | 0.0548 | 
11 | Cn1cc(-c2ccc(Cn3cc(C(=O)N[C@H]4CCCC[C@@]4(C)O)c4c(F)cccc43)c(F)c2)cn1 (racemic) [Example 23, 4-fluoro-1-(2-fluoro-4-(1-methyl-1H-pyrazol-4-yl)benzyl)-N-((1SR,2RS)-2-hydroxy-2-methylcyclohexyl)-1H-indole-3-carboxamide] | 0.0258 | 0.0149 | 
12 | O=C(N[C@H]1CCOC[C@@H]1O)c1cn(CC2CCN(c3ccccn3)CC2)c2cccc(F)c12 [Example 136, 4-fluoro-N-((3R,4S)-3-hydroxytetrahydro-2H-pyran-4-yl)-1-((1-(pyridin-2-yl)piperidin-4-yl)methyl)-1H-indole-3-carboxamide] | 0.428 | 0.134 | 
13 | Cn1cc(-c2ccc(Cn3cc(C(=O)N[C@H]4CCCC[C@@H]4O)c4c(F)cc(F)cc43)c(F)c2)cn1 [Example 5, 4,6-difluoro-1-(2-fluoro-4-(1-methyl-1H-pyrazol-4-yl)benzyl)-N-((1S,2S)-2-hydroxycyclohexyl)-1H-indole-3-carboxamide] | 0.231 | 0.0838 | 
